What is called IC50 is the concentration that gives 50% inhibition. Lower therefore signals greater potency in that assay.

Drawing on PMC3690544 (European journal of pharmacology, 2012), this text covers IC50 for two molecules.

In assay [1] the target is T1, P-glycoprotein (Pgp) (Homo sapiens, UniProt P08183). The class given is cell-based.
Assay [2] addresses T1, P-glycoprotein (Pgp). The class given is cell-based. The source holds these as a separate data set.

Where two headings read alike, the source gives them in different places.

T1 sequence (P08183 whole entry): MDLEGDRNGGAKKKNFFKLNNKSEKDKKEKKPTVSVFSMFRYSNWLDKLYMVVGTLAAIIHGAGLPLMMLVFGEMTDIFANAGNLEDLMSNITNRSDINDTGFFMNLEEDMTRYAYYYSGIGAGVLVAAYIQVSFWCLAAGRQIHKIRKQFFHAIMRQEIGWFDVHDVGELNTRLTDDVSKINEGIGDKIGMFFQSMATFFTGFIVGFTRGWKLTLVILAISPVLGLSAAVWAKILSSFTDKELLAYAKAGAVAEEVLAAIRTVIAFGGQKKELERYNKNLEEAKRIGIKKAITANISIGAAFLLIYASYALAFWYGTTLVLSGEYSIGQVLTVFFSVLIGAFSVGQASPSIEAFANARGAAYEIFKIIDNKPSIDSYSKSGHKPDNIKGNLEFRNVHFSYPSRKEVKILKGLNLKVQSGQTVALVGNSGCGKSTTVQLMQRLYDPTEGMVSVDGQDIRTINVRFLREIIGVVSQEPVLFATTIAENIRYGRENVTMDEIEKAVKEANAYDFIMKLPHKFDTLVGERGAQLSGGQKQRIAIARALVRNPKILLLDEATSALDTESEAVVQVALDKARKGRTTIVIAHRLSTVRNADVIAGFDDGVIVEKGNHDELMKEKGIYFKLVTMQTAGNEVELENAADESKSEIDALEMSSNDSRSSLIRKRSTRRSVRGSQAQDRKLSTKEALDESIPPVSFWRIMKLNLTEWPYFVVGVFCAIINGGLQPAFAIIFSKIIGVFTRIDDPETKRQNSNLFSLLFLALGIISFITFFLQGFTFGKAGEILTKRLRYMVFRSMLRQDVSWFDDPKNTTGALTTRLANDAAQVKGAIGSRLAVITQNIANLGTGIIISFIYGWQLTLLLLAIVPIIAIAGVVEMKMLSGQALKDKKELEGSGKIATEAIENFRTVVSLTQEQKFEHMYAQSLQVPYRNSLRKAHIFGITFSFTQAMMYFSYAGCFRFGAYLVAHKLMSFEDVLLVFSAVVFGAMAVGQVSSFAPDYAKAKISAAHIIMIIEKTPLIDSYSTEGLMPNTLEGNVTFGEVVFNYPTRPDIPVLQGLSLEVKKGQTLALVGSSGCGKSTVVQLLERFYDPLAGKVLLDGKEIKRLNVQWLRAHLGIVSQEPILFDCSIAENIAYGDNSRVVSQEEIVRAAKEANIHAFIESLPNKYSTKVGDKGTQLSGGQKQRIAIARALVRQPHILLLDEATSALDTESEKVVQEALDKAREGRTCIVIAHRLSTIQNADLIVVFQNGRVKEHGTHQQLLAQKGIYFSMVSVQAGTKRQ

`COc1cc2c(cc1OC)CN(CCc1ccc(-n3nnc(-c4cc(OC)c(OC)cc4NC(=O)c4cc(=O)c5ccccc5o4)n3)cc1)CC2` [HM30181, N-(2-(2-(4-(2-(6,7-dimethoxy-3,4-dihydroisoquinolin-2(1H)-yl)ethyl)phenyl)-2H-tetrazol-5-yl)-4,5-dimethoxyphenyl)-4-oxo-4H-chromene-2-carboxamide] came in with an IC50 against P-glycoprotein (Pgp) [1] of 13.1 ± 2.3 nM.

The molecule `COc1cc2c(cc1OC)CN(CCc1ccc(NC(=O)c3cc(OC)c(OC)cc3NC(=O)c3cnc4ccccc4c3)cc1)CC2` [tariquidar] yielded an IC50 on P-glycoprotein (Pgp) [2] of 8.2 ± 2 nM.
